We go through 50 molecules from patent US10183021B2, “sGC stimulators” (Ironwood Pharmaceuticals, Inc., priority 2013, dated 2019).

This experiment deals with soluble guanylate cyclase (sGC) (Homo sapiens (Human), UniProt Q02108+Q02153). Kind of experiment: sGC-HEK-cGMP assay with SNP incubation, LC/MS detection (Example 2A). Conditions: HEK293 cells, 10 μM SNP, LC/MS detection; for Emax: 100% = BAY 41-2272 at 10 μM, read-out: HEK assay Emax - unconstrained (%); for pEC50: top of curve not fitted to 100%, read-out: HEK assay EC50 - unconstrained. It is filed as cell-based. In outline: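 HEK293 cells with endogenous sGC were pretreated 15 min at 37 °C with 0.5 mM IBMX, then exposed 10 min at 37 °C to compound (added from 0.0001–30 μM solutions) plus SNP (from 10 μM solution). After 0.1 M HCl lysis, cGMP was quantified by LC/MS against a standard curve.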

The structures appear in SMILES notation. pEC50: −log10 of the molar value. Some results are limits rather than exact numbers.

Chain of soluble guanylate cyclase (sGC) (Q02153 whole entry): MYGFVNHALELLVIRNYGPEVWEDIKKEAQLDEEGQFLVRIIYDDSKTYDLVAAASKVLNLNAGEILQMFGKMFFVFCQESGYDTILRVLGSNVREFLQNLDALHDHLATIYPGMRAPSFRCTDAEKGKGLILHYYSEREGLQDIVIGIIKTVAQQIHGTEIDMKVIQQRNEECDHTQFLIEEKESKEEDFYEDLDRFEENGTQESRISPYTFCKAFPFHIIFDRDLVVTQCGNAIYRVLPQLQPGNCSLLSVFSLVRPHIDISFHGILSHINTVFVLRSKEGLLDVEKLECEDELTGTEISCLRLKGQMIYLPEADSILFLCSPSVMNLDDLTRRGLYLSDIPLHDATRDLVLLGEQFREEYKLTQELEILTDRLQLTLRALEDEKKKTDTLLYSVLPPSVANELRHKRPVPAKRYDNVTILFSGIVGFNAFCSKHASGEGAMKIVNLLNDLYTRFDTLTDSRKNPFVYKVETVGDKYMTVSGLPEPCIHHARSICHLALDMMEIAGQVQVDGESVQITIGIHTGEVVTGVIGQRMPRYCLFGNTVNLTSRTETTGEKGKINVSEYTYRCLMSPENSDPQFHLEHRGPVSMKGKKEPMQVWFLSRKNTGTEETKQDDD
Chain of soluble guanylate cyclase (sGC) (Q02108 whole entry): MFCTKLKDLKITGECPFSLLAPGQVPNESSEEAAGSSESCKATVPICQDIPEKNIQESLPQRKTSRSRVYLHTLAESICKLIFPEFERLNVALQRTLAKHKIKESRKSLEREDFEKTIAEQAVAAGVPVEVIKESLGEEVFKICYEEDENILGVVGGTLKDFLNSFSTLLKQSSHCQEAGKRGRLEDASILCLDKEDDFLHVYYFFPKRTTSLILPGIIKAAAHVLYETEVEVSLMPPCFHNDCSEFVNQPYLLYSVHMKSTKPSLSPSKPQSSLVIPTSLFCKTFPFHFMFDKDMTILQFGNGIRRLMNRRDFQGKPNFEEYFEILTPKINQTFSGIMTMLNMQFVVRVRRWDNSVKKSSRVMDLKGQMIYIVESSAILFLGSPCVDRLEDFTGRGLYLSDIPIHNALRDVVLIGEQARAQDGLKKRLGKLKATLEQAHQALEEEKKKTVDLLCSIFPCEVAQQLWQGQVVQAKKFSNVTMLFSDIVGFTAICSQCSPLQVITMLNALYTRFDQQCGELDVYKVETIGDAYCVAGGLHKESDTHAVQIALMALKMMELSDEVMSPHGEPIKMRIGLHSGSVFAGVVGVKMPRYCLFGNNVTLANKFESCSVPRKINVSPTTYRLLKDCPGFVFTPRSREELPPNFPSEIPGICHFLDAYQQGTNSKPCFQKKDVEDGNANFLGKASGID

A word on the Emax: it is the greatest response seen or fitted, relative to the assay's reference. The term pEC50 denotes the EC50 on a negative log10 scale, so that one unit is a factor of ten. For the molecule `CC1CN(c2nc(-c3cc(-c4ccon4)n(Cc4ccccc4F)n3)ncc2F)CCC1C(=O)O` (stereo not drawn) [Compound I-190], the Emax lay within 60 to 80% and the pEC50 is 5.30 to 6.00.

For `Fc1ccccc1Cn1nc(-c2ncc(F)c(N3CCCN3)n2)cc1-c1ccon1` [Compound I-193], the Emax is 60 to 80% and the pEC50 was 5.30 to 6.00. With `O=C(O)C1(CNc2nc(-c3cc(-c4ccon4)n(Cc4ccccc4F)n3)ncc2F)CCOCC1` [Compound I-194], the Emax fell in the range of 80 to 100% and the pEC50 was 6.30 to 7.00. Take `CC(C)C(CC(=O)O)N(C)c1nc(-c2cc(-c3ccon3)n(Cc3ccccc3F)n2)ncc1F` (stereo not drawn) [Compound I-195]: the maximum response (Emax) was in the range of 60 to 80% and the pEC50 was 7.00 to 9.00. For the molecule `CNc1nc(-c2cc(-c3ccon3)n(Cc3ccccc3F)n2)ncc1F` [Compound I-196], the maximal effect (Emax) fell in the range of 80 to 100%. As for `O=C(O)COC1CCN(c2nc(-c3cc(-c4ccon4)n(Cc4ccccc4F)n3)ncc2F)CC1` [Compound I-197], the Emax fell in the range of 80 to 100% and the pEC50 was 5.30 to 6.00. Take `CSCCC(Nc1nc(-c2cc(-c3ccon3)n(Cc3ccccc3F)n2)ncc1F)C(=O)O` (stereo not drawn) [Compound I-199]: the Emax was 60 to 80% and the negative logarithm of the EC50 (pEC50) was 5.00 to 5.30. Regarding `CCOC(=O)CN(CC1CC1)c1nc(-c2cc(-c3ccon3)n(Cc3ccccc3F)n2)ncc1F` [Compound I-201], the Emax was in the range of 100 to 120% and the pEC50 is 6.30 to 7.00.

With `CC(C)[C@@H](CC(=O)O)N(C)c1nc(-c2cc(-c3ccon3)n(Cc3ccccc3F)n2)ncc1F` [Compound I-202], the Emax lay within 80 to 100% and the pEC50 was 6.30 to 7.00. Consider `O=C(O)CN(CC1CC1)c1nc(-c2cc(-c3ccon3)n(Cc3ccccc3F)n2)ncc1F` [Compound I-203], for which the Emax was 40 to 60% and the pEC50 was 6.30 to 7.00.

Consider `CCOC(=O)CN(CC(C)C)c1nc(-c2cc(-c3ccon3)n(Cc3ccccc3F)n2)ncc1F` [Compound I-205], for which the Emax lay in the range of 60 to 80% and the pEC50 was 6.00 to 6.30. As to `C[C@@H](C(=O)O)N(C)c1nc(-c2cc(-c3ccon3)n(Cc3ccccc3F)n2)ncc1F` [Compound I-207], the Emax lay in the range of 100 to 120% and the negative-log EC50 (pEC50) is 6.00 to 6.30. For `O=C(O)C12CCCC1CN(c1nc(-c3cc(-c4ccon4)n(Cc4ccccc4F)n3)ncc1F)C2` (stereo not drawn) [Compound I-208] the same measures were 80 to 100% and 7.00 to 9.00. Take `CC(C)CN(CC(=O)O)c1nc(-c2cc(-c3ccon3)n(Cc3ccccc3F)n2)ncc1F` [Compound I-209]: the Emax is 80 to 100% and the pEC50 was 6.00 to 6.30. In the case of `O=C(O)C1(CNc2nc(-c3cc(-c4ccon4)n(Cc4ccccc4F)n3)ncc2F)CC1` [Compound I-210], the Emax was 100 to 120% and the pEC50 was 7.00 to 9.00. Regarding `OCC1CNCCN1c1nc(-c2cc(-c3ccon3)n(Cc3ccccc3F)n2)ncc1F` (stereo not drawn) [Compound I-211], the Emax was more than 120% and the pEC50 was 5.30 to 6.00. Take `O=C(N1CCN(c2nc(-c3cc(-c4ccon4)n(Cc4ccccc4F)n3)ncc2F)C(CO)C1)C(F)(F)F` (stereo not drawn) [Compound I-212]: the Emax is more than 120% and the negative-log EC50 (pEC50) was 6.00 to 6.30. As for `CN(CCCC(=O)O)c1nc(-c2cc(-c3ccon3)n(Cc3ccccc3F)n2)ncc1F` [Compound I-215], the Emax fell in the range of 40 to 60% and the pEC50 is 5.30 to 6.00. `O=C(O)CN1CCCN1c1nc(-c2cc(-c3ccon3)n(Cc3ccccc3F)n2)ncc1F` [Compound I-216]: the Emax lay in the range of 40 to 60% and the pEC50 was 6.30 to 7.00. On to `CCC(CC)(CNc1nc(-c2cc(-c3ccon3)n(Cc3ccccc3F)n2)ncc1F)C(=O)O` [Compound I-217], for which the Emax was 60 to 80% and the pEC50 was 6.30 to 7.00. Consider `CONC(=O)CN(C)c1nc(-c2cc(-c3ccon3)n(Cc3ccccc3F)n2)ncc1F` [Compound I-218], for which the Emax was in the range of 40 to 60% and the pEC50 was 5.30 to 6.00. Regarding `Cc1noc(CN(C)c2nc(-c3cc(-c4ccon4)n(Cc4ccccc4F)n3)ncc2F)n1` [Compound I-223], the Emax lay within 40 to 60% and the pEC50 is 5.30 to 6.00.

Take `C[C@H](C[C@H](Nc1nc(-c2cc(-c3ccon3)n(Cc3ccccc3F)n2)ncc1F)C(=O)O)C(F)(F)F` [Compound I-224]: the Emax fell in the range of 60 to 80% and the pEC50 was 5.30 to 6.00. Take `C[C@H](C[C@@H](Nc1nc(-c2cc(-c3ccon3)n(Cc3ccccc3F)n2)ncc1F)C(=O)O)C(F)(F)F` [Compound I-225]: the Emax is 80 to 100% and the pEC50 was 7.00 to 9.00. For the molecule `CC(C)(F)C(Nc1nc(-c2cc(-c3ccon3)n(Cc3ccccc3F)n2)ncc1F)C(=O)O` (stereo not drawn) [Compound I-226], the Emax fell in the range of 60 to 80% and the pEC50 was 7.00 to 9.00. As for `O=C(O)[C@@H](Nc1nc(-c2cc(-c3ccon3)n(Cc3ccccc3F)n2)ncc1F)C1CC1` [Compound I-227], the Emax was 20 to 40% and the pEC50 was 6.30 to 7.00. Turning to `CN(CC1(C(=O)O)CCCC1)c1nc(-c2cc(-c3ccon3)n(Cc3ccccc3F)n2)ncc1F` [Compound I-228], the Emax was in the range of 0 to 10% and the pEC50 is less than 5.00. In the case of `O=C(O)CC1CCCN(c2nc(-c3cc(-c4ccon4)n(Cc4ccccc4F)n3)ncc2F)C1` (stereo not drawn) [Compound I-229], the Emax was 20 to 40% and the negative logarithm of the EC50 (pEC50) was less than 5.00. For `COC(=O)CC1CCN(c2nc(-c3cc(-c4ccon4)n(Cc4ccccc4F)n3)ncc2F)CC1` [Compound I-231], the Emax lay in the range of 40 to 60% and the pEC50 was less than 5.00. On to `COCCC(Nc1nc(-c2cc(-c3ccon3)n(Cc3ccccc3F)n2)ncc1F)C(=O)O` (stereo not drawn) [Compound I-232], for which the maximal response (Emax) was in the range of 80 to 100% and the pEC50 is 5.30 to 6.00. Regarding `O=C(O)C(Nc1nc(-c2cc(-c3ccon3)n(Cc3ccccc3F)n2)ncc1F)C1CCCCC1` (stereo not drawn) [Compound I-233], the Emax lay in the range of 60 to 80% and the pEC50 was 6.30 to 7.00. In the case of `O=C(O)CCC1CCN(c2nc(-c3cc(-c4ccon4)n(Cc4ccccc4F)n3)ncc2F)CC1` [Compound I-234], the Emax was in the range of 80 to 100% and the pEC50 was 6.30 to 7.00. On to `CC(C)[C@@H](C(=O)O)N(C)c1nc(-c2cc(-c3ccon3)n(Cc3cccc(F)c3F)n2)ncc1F` [Compound I-235], for which the maximal response (Emax) is 100 to 120% and the pEC50 was 7.00 to 9.00. As to `CC(C)[C@H](c1nnn[nH]1)N(C)c1nc(-c2cc(-c3ccon3)n(Cc3ccccc3F)n2)ncc1F` [Compound I-237], the Emax is 60 to 80% and the pEC50 is 6.30 to 7.00. In the same order, the values of `CN(CC1(C(=O)O)CCOCC1)c1nc(-c2cc(-c3ccon3)n(Cc3ccccc3F)n2)ncc1F` [Compound I-238] are 60 to 80% and 6.30 to 7.00.

In the case of `O=C(O)[C@H](Nc1nc(-c2cc(-c3ccon3)n(Cc3ccccc3F)n2)ncc1F)C1CC1` [Compound I-240], the maximal response (Emax) lay within 60 to 80% and the pEC50 is 6.00 to 6.30. In the case of `CN(c1nc(-c2cc(-c3ccon3)n(Cc3ccccc3F)n2)ncc1F)[C@@H](C(=O)O)C1CC1` [Compound I-241], the maximal response (Emax) fell in the range of 80 to 100% and the pEC50 is 6.30 to 7.00. Take `CN(c1nc(-c2cc(-c3ccon3)n(Cc3ccccc3F)n2)ncc1F)[C@@H]1CCCC[C@H]1C(=O)O` [Compound I-242]: the Emax was 100 to 120% and the pEC50 is 6.30 to 7.00. Regarding `O=C(O)[C@H](Nc1nc(-c2cc(-c3ccon3)n(Cc3ccccc3F)n2)ncc1F)C1CCCCC1` [Compound I-243, (R)-2-cyclohexyl-2-((5-fluoro-2-(1-(2-fluorobenzyl)-5-(isoxazol-3-yl)-1H-pyrazol-3-yl)pyrimidin-4-yl)amino)acetic acid], the maximal response (Emax) lay within 80 to 100% and the pEC50 was 7.00 to 9.00. For `CN(c1nc(-c2cc(-c3ccon3)n(Cc3ccccc3F)n2)ncc1F)C(CC(F)(F)F)C(=O)O` (stereo not drawn) [Compound I-244] the same measures were 80 to 100% and 6.00 to 6.30.

As for `CCOC(=O)CN(c1nc(-c2cc(-c3ccon3)n(Cc3ccccc3F)n2)ncc1F)C1(C)CCOCC1` [Compound I-246], the Emax lay within 40 to 60% and the negative-log EC50 (pEC50) was 5.30 to 6.00. As to `CCC(C)[C@H](C(=O)O)N(C)c1nc(-c2cc(-c3ccon3)n(Cc3ccccc3F)n2)ncc1F` (stereo partly drawn) [Compound I-247], the Emax was in the range of 80 to 100% and the pEC50 was 7.00 to 9.00. For `CC(C)(C)[C@H](CC(=O)O)Nc1nc(-c2cc(-c3ccon3)n(Cc3ccccc3F)n2)ncc1F` [Compound I-251] the same measures were 60 to 80% and 6.30 to 7.00. For `CCC(CC)(CN(C)c1nc(-c2cc(-c3ccon3)n(Cc3ccccc3F)n2)ncc1F)C(=O)O` [Compound I-252] the same measures were 60 to 80% and 7.00 to 9.00. In the case of `O=C(O)c1ccccc1C1CCN(c2nc(-c3cc(-c4ccon4)n(Cc4ccccc4F)n3)ncc2F)CC1` [Compound I-254], the maximum response (Emax) lay in the range of 80 to 100% and the negative logarithm of the EC50 (pEC50) is 7.00 to 9.00. For `O=C(O)C1(c2ccc(F)cc2)CCN(c2nc(-c3cc(-c4ccon4)n(Cc4ccccc4F)n3)ncc2F)CC1` [Compound I-255], the Emax lay within 80 to 100% and the pEC50 was 7.00 to 9.00. For the molecule `CCC(C)(C)C1(C(=O)O)CCN(c2nc(-c3cc(-c4ccon4)n(Cc4ccccc4F)n3)ncc2F)CC1` [Compound I-256], the Emax was in the range of 80 to 100% and the pEC50 was 6.30 to 7.00. For `CC(C)CC(Nc1nc(-c2cc(-c3ccon3)n(Cc3ccccc3F)n2)ncc1F)C(=O)NS(C)(=O)=O` (stereo not drawn) [Compound I-259], the Emax lay in the range of 100 to 120% and the negative logarithm of the EC50 (pEC50) was 6.30 to 7.00. Take `CC(C)[C@@H](C(=O)O)N(C)c1ccnc(-c2cc(-c3ccon3)n(Cc3ccccc3F)n2)n1` [Compound I-272]: the maximal effect (Emax) was in the range of 60 to 80% and the pEC50 is 6.30 to 7.00. Turning to `O=C(O)CN(CC(F)(F)F)c1nc(-c2cc(-c3ccon3)n(Cc3ccccc3F)n2)ncc1F` [Compound I-273], the Emax fell in the range of 60 to 80% and the pEC50 was 6.00 to 6.30.
